Reference: paper PMC4255672 (2014)

Test system: BPA aptamer (DNA, aptamer) CCGCCGTTGGTGTGGTGGGCCTAGGGCCGGCGGCGCACAGCTGTTATAGACGTCTCCAGC
Assay: microscale thermophoresis
Conditions: 25 °C; 5 nM aptamer; BPA 310 pM to 10 μM; Hill1 fit; buffer not stated

Kd: ~ 100 nM
Structure (SMILES): CC(C)(c1ccc(O)cc1)c1ccc(O)cc1
